Experimental findings from a melting point compilation (Tetko et al.; mined from patent text by program, amines drawn as free bases though some values may be those of a salt) are described below.

Molecules are shown by their SMILES. Where only a bound is given, the exact number is not on record here.

For the compound `COc1ccn2nc(-c3ccccc3)c(-c3ccc(=O)n(C4CCN(C)CC4)n3)c2c1`, the melting point lay within 154 to 155 °C.

Regarding `CC(C)(C)OC(=O)N1C(=O)CCC1=O`, the melting point lay in the range of 76 to 78 °C. On to `COc1ccc(-c2cc3c(OC)c(Br)c(OC)cc3o2)cc1`, for which the melting point fell in the range of 107 to 109 °C. `COc1cccc2c1C(=O)c1c(O)cc(CO)cc1C2=O` returned a melting point of 215 to 216 °C. Consider `CCc1c(C(=O)c2cc(C)cc(C)c2)n(CCC2=CCCC2)c(=O)[nH]c1=O`, for which the melting point fell in the range of 211 to 213 °C. The result for `OC(COc1ccc(F)cc1)CN1CCC(=C2c3ccc(F)cc3CCn3ncnc32)CC1` (configuration not stated) reads 134 °C; that for `O=C(O)C=Cc1cn(Cc2cc(OCc3ccccc3)cc(OCc3ccccc3)c2)cc1-c1ccccc1`, 182 to 183 °C. The result for `CN1Cc2c(-c3noc(CN)n3)ncn2-c2ccccc2C1=O` reads 192 to 195 °C.

Consider `Nc1nnc(CCC2CCCCC2)s1`, for which the melting point lay in the range of 253 to 255 °C.

`N[C@@]1(C(=O)O)C[C@H](NC(=O)Nc2cccc(Cl)c2)[C@H]2[C@H](C(=O)O)[C@H]21` (relative stereo) registered a melting point of more than 250 °C. Compound `COc1cc(Cc2cnc(NC(C)=Nc3ccccc3)nc2N)cc(OC)c1OC` had a melting point of 189 °C. On to `O=CC1=C(Cl)Nc2cc(F)c(F)cc2C1`, for which the melting point was 260 °C.

As for `CC1c2cc(F)ccc2-c2ccc(F)cc2N1C(=O)c1ccc(O)cc1` (configuration not stated), the melting point fell in the range of 138 to 140 °C. For `CCCc1nc2c(N)nc3cc(OCc4ccc(F)cc4)ccc3c2n1CC(C)C`, the melting point lay in the range of 198 to 200 °C.

In the case of `O=C(CCc1ccccc1)N[C@H](Cc1ccc(C(F)(F)F)cc1)[C@@H](O)c1ccc(F)cc1F` (racemic), the melting point fell in the range of 126 to 127 °C. For `COc1cccc(NC(=O)NCC(=O)N(c2ccccc2)c2ccccc2)c1` the value was 182 °C; for `CCNC(=O)c1ccc(N2CCN(Cc3cnc4c(c3)[nH]c(=O)n3cccc43)CC2)c(C)c1`, 255 to 258 °C. The result for `O=C1NCCCN1C1CCN(Cc2ccccc2)CC1` reads 178 to 180 °C; that for `Cc1nc2ccc3c(c2o1)OC(CN1CCCCC1)CO3` (configuration not stated), 109 to 112 °C.

In turn, `COc1ccc2c(c1)CCc1c(C#N)cccc1S2` registered a melting point of 129 to 130 °C.

Compound `COc1cc(/C=C/c2cc(/C=C/c3ccc4cc[nH]c4c3)n[nH]2)ccc1OCc1ccccn1` had a melting point of 236 to 243 °C.

As for `CCNC(=O)c1ccc(N2CCN(Cc3cc4c(c(OC(F)F)c3)OC(C)C(=O)N4)CC2)cc1` (configuration not stated), the melting point is 219 to 224 °C.

In turn, `c1ccc(N2CCN(c3nc4c(c(NC5CCCCC5)n3)SCC4)CC2)cc1` showed a melting point of 174 to 175 °C. `COc1cccc2c1C(C)(C)C(=O)N2` showed a melting point of 143 to 144 °C. The result for `CCOC(=O)c1c(Cc2nc[nH]n2)nc2sc3cnccc3c2c1-c1ccc(OC)c(OC)c1` reads 172 to 174 °C; that for `Cc1c(N2CC(O)C2)c(F)cc2c(=O)n(N)c(=O)n(C3CC3)c12`, 212 to 214 °C; that for `COC(=O)C1=C(C)NC(C)=C(C(=O)OCCOc2ccc(CCOC(C)=O)cc2)C1c1cccc([N+](=O)[O-])c1` (configuration not stated), 110 °C. On to `COC(=O)c1sc2ccccc2c1O`, for which the melting point lay in the range of 109 to 110 °C. Regarding `O=C(O)CCc1ccc(C(=O)CN2CCN(c3ccncc3)CC2)cc1`, the melting point lay in the range of 245 to 247 °C. For `Nc1ncnc2sc(Cc3ccncc3)c(-c3ccc(NC(=O)Nc4cccc(C(F)(F)F)c4)cc3)c12` the value was 162 to 166 °C; for `CON1C(=O)CC12C=CC(=O)C=C2`, 107 to 109 °C.

Consider `CC(=O)Nc1cccc2c1CCCC2`, for which the melting point was 158 °C.

`O=[N+]([O-])c1cccc2c1nc(-c1c(F)cccc1F)n2Cc1c(F)cccc1F`: the melting point fell in the range of 168 to 170 °C.

`O=C(O)c1ccccc1OCCN1CCC(c2cn(Cc3ccoc3)c3ncccc23)CC1` had a melting point of 105 to 107 °C. For `CC(=O)c1ccc(Oc2ccc(S(C)(=O)=O)cc2)cc1` the value was 131 to 132 °C; for `C#Cc1cc2ncc(C#N)c(Nc3cc(OC)c(Cl)cc3Cl)c2s1`, 198 to 200 °C. For `O=[N+]([O-])c1n[nH]c(-c2ccc(C(F)F)c(C(SC(c3cc(-c4nc([N+](=O)[O-])n[nH]4)ccc3C(F)F)C(F)(F)F)C(F)(F)F)c2)n1` (configuration not stated) the value was 74 to 76 °C; for `COc1nc(C(=O)NC(C)(C)C)c(C(=O)O)s1`, 120 to 122 °C; for `Nc1ccc(Cl)cc1C=Nc1ccccc1`, 74 °C. Compound `COC(=O)Nc1nc(C(=O)C(=O)OC)ns1` yielded a melting point of 112 to 117 °C. With `Cc1cc(OC(=S)N(C)C)c(C(C)(C)C)cc1C=O`, the melting point fell in the range of 79.5 to 81 °C. Regarding `O=C1C(c2ccccc2)=C(c2ccccc2)C(=O)N1CC(=O)N1c2ccccc2N(Cc2ccccc2)C(=O)C2CCCC21` (configuration not stated), the melting point lay in the range of 207 to 208 °C. Take `O=c1[nH]c2sc(-c3ccccc3)nc2c2ccccc12`: the melting point is more than 310 °C. The compound `O=C(O)c1ccc2c(-c3ccccc3)coc2c1` showed a melting point of 160 to 170 °C.

On to `CC(=O)NC(C)Cc1cc(C)c(C)cc1CC(=O)O` (configuration not stated), for which the melting point was 67 to 69 °C.

Compound `COc1cc(C(O)CS(C)(=O)=O)cc(OC)c1N(C)C(C)=O` (configuration not stated) displayed a melting point of 175 to 177 °C. Turning to `CC(=O)c1ccc(CCCOc2c(C)cc(N3CN=C(C(F)F)O3)cc2C)nn1`, the melting point was in the range of 95 to 96 °C. For `CC(=O)Nc1cc(Cl)c(O)c(Cl)c1` the value was 151 to 152 °C; for `Cc1cccnc1C(=O)NC(C)(C)C`, 56 to 58 °C; for `CC(C)C[C@H](NC(=O)CCS)C(=O)O`, 131 to 132 °C.

Take `CC(=NNC(=O)C1CC1)c1ccc(Cl)nc1`: the melting point worked out at 218 °C.

For `COc1ccc(N2CCOCC2)c2sc(-c3nc4c([nH]3)CCN(C(=O)c3ccccc3C)CC4)nc12`, the melting point fell in the range of 194 to 196 °C. The result for `COC(=O)CCc1cc(C)c(O)c(C)c1` reads 70 to 83 °C; that for `ON=C1CCC2(CC1)Cc1ccccc1C2`, 120 to 122 °C.

In turn, `N#CC(=NO)c1cccc(Oc2ccccc2)c1` showed a melting point of 124 to 125 °C. `CC1(C)[C@H]2CC[C@@H](CC(=O)O)[C@@H]1C2` registered a melting point of 50 to 53 °C.

In turn, `Cn1nnnc1CN1CCC[C@@H](OCc2cc(C(F)(F)F)cc(C(F)(F)F)c2)[C@H]1c1ccccc1` (relative stereo) displayed a melting point of 75 to 77 °C.

In turn, `O=c1oc2cc(O)cc(O)c2c(O)c1C1=CCOc2oc3ccccc3c(=O)c21` gave a melting point of 254 to 256 °C. The result for `Cc1ccccc1NC(=O)Nc1ccc(CC(=O)N2CCN(C(C)C(=O)O)C(=O)C2Cc2ccccc2)cc1` (configuration not stated) reads 103 to 105 °C. `N=C1SCCN1c1ccc([N+](=O)[O-])cc1` had a melting point of 166 °C.

In the case of `N#Cc1c(Nc2ccccc2)nn(Cc2ccccc2)c1N`, the melting point fell in the range of 139 to 140 °C. Compound `CCOC(=O)c1cccc(C2(C(N)=O)C(=O)N(CC(=O)N(c3ccccc3)C(C)C)c3ccccc3N(c3ccccc3)C2=O)c1` (configuration not stated) displayed a melting point of 187 to 188 °C. The compound `COc1cc2c(cc1Nc1ncc(Cl)c(Nc3ccc(N4CCOCC4)cc3OC)n1)CCN(CC(=O)OC(C)C)CC2` registered a melting point of 70 to 80 °C. For `CON=C(C)c1ccc(-c2ccccc2NC(=O)c2c(C)nn(C)c2F)cc1` the value was 153 °C. The result for `C[C@]1(CN2CCC(c3ccccc3)CC2)Cn2cc([N+](=O)[O-])nc2O1` reads 159 to 164 °C. Regarding `N#CC1=C(C#N)Sc2nc3cc(C(F)(F)F)ccc3nc2S1`, the melting point is 197 to 199 °C. The result for `CC(C)(C)C1=NN(c2ccc(S(=O)(=O)O)cc2)C(c2ccc(F)cc2)C1` (configuration not stated) reads 92.9 °C. Take `O=C/C(=C/c1ccc(Cl)cc1Cl)c1ccc(Cl)cc1`: the melting point lay within 106 to 109 °C. The result for `COC(=O)CC(O)CC(O)CCc1c(-c2ccc(F)cc2)c(-c2ccccc2)c(C(=O)Nc2ccc(C(=O)OC)cn2)n1C(C)C` (configuration not stated) reads 71 to 75 °C; that for `CC(C)c1[nH]c(C(=O)Nc2ccc(C(=O)O)cc2)c(C(C)C)c1C(C)C`, more than 300 °C. The result for `O=C(c1cc(C(F)(F)F)cc(C(F)(F)F)c1)N1CCN(C(=O)CN2CCC(O)(c3ccccc3)CC2)C(c2ccccc2)C1` (racemic) reads 101 to 102 °C. The result for `O=C1N=C(N2CCOCC2)SC1=Cc1ccccc1-c1ccc(O)c(C23CC4CC(CC(C4)C2)C3)c1` reads 321 to 324 °C; that for `COc1ccc(Cl)cc1C(=O)NCc1ccc(-c2ccc(OC(C)(C)CO)cc2)cc1`, 109 °C.

Consider `COC(c1cccc2nc3n(c12)CCCN3c1ccc(Cl)cc1Cl)C1CC1` (configuration not stated), for which the melting point is 118 to 119 °C.

`c1ccc(COc2cc(-c3ccccn3)nc(-c3cccc(-c4ccccc4)n3)c2)cc1`: the melting point amounted to 182 °C. The result for `CCOC(=O)Cc1c(C)n(-c2ncnc3ccccc23)c2ccc(OC)cc12` reads 121 to 123 °C; that for `CC(c1ccc(COCc2ccccc2)o1)N(O)C(N)=O` (configuration not stated), 121 °C; that for `CNC(Cc1c[nH]c2c(Cl)cccc12)C(=O)O` (configuration not stated), 208 to 211 °C. The result for `COc1ccc2nc(C(=O)O)c(OCc3ccccc3)cc2c1` reads 272 to 275 °C; that for `COc1cc(C2=NNC(=O)Cc3cc4c(cc32)OCO4)ccc1N`, 147 to 150 °C. For `CCOC(=O)[C@@H](O)[C@@H]1OC(=O)c2cc(OC)c(OS(=O)(=O)c3ccc(C)cc3)cc21`, the melting point was in the range of 107 to 108 °C.

The compound `Cc1n[nH]c(C)c1Oc1cc(C#N)cc(C#N)c1` returned a melting point of 182 to 185 °C. `CC(=O)O/N=C(\C)[C@H]1CC[C@H]2[C@@H]3CCC4=CC(=O)CC[C@]4(C)[C@H]3CC[C@]12C` showed a melting point of 158 to 160 °C.

As to `Oc1ccc2cc(Br)cc(F)c2c1`, the melting point lay within 124 to 126 °C. Compound `CSc1cc(C)nc(SC)c1NC(=O)CSc1nc2cccc(C(F)(F)F)c2o1` displayed a melting point of 207 to 209 °C.

Compound `COc1ccc(NC(=O)c2ccc(C(C)(C)CN)cc2)cc1` displayed a melting point of 139 to 140 °C. The result for `CC12CCC3C(CCC4CC(F)CCC43C)C1CCC2O` (configuration not stated) reads 150 to 151 °C.
